{"source": "patent US20070049564A1", "about": "(Wyeth, priority 2005, published 2007)", "key": {"S. aureus GC 6467": {"tested_on": "S. aureus GC 6467", "experiment": "MIC, broth microdilution", "details": "Staphylococcus aureus"}, "c. albicans GC 3066": {"tested_on": "c. albicans GC 3066", "experiment": "MIC, broth microdilution"}, "S. aureus GC 1079": {"tested_on": "S. aureus GC 1079", "experiment": "MIC, broth microdilution", "details": "Staphylococcus aureus"}, "S. aureus GC 6466": {"tested_on": "S. aureus GC 6466", "experiment": "MIC, broth microdilution", "details": "Staphylococcus aureus"}, "E. coli GC 2231": {"tested_on": "E. coli GC 2231", "experiment": "MIC, broth microdilution", "details": "Escherichia coli"}, "S. aureus GC 2216": {"tested_on": "S. aureus GC 2216", "experiment": "MIC, broth microdilution", "details": "Staphylococcus aureus"}, "E. faecium GC 2243": {"tested_on": "E. faecium GC 2243", "experiment": "MIC, broth microdilution", "details": "Enterococcus faecium"}, "S. aureus GC 6469": {"tested_on": "S. aureus GC 6469", "experiment": "MIC, broth microdilution", "details": "Staphylococcus aureus"}, "S. aureus GC 4536": {"tested_on": "S. aureus GC 4536", "experiment": "MIC, broth microdilution", "details": "Staphylococcus aureus"}, "E. coli GC 2270": {"tested_on": "E. coli GC 2270", "experiment": "MIC, broth microdilution", "details": "Escherichia coli"}, "E. coli": {"tested_on": "E. coli", "experiment": "Range of MIC for E. coli strains", "details": "Escherichia coli", "protocol": "(§1) Antimicrobial susceptibility testing. The in vitro activities of the antibiotics are determined by the broth microdilution method as recommended by the National Committee for Clinical Laboratory Standards (NCCLS) (1). Mueller-Hinton II broth (MHBII)(BBL Cockeysville, Md.) is the medium employed in the testing procedures. Microtiter plates containing serial dilutions of each antimicrobial agent are inoculated with each organism to yield the appropriate density (10^5 CFU/ml) in a 100 μl final volume. The plates are incubated for 18-22 hours at 35° C. in ambient air.\n(§2) Representative compounds were first incubated in mouse serum for an hour prior to the in vitro testing against a panel of selected gram-positive and gram-negative bacteria strains. All compounds were also pre-incubated in water for an hour prior to testing as control. Representative compounds of Formula I were incubated in human serum prior to MIC determination."}, "E. faecalis GC 2242": {"tested_on": "E. faecalis GC 2242", "experiment": "MIC, broth microdilution", "details": "Enterococcus faecalis", "protocol": "as §1, §2"}, "E. faecium GC 4556": {"tested_on": "E. faecium GC 4556", "experiment": "MIC, broth microdilution", "details": "Enterococcus faecium"}, "E. coli GC 6465": {"tested_on": "E. coli GC 6465", "experiment": "MIC, broth microdilution", "details": "Escherichia coli"}, "S. typhimurium GC 2172": {"tested_on": "S. typhimurium GC 2172", "experiment": "MIC, broth microdilution", "details": "Salmonella enterica, TYPHIMURIUM"}, "E. coli GC 2233": {"tested_on": "E. coli GC 2233", "experiment": "MIC, broth microdilution", "details": "Escherichia coli"}, "E. coli GC 2235": {"tested_on": "E. coli GC 2235", "experiment": "MIC, broth microdilution", "details": "Escherichia coli"}, "E. coli GC 1073": {"tested_on": "E. coli GC 1073", "experiment": "MIC, broth microdilution", "details": "Escherichia coli"}, "Staph.": {"tested_on": "Staph.", "experiment": "Range of MIC for Staph. strains, including MRSA", "details": "Staphylococcus aureus"}, "E. coli GC 4560": {"tested_on": "E. coli GC 4560", "experiment": "MIC, broth microdilution", "details": "Escherichia coli"}}, "note": "Read-outs that look alike come from different tables or passages of the source.", "data": [{"compound": "CN(C)c1cc(NC(=O)CN(C(=O)OCOC(=O)CCC2CCCCC2)C(C)(C)C)c(O)c2c1C[C@H]1C[C@H]3[C@H](N(C)C)C(O)=C(C(N)=O)C(=O)[C@@]3(O)C(O)=C1C2=O", "note": "[Example 63, ({[(2-{[(5aR,6aS,7S,10aS)-9-(aminocarbonyl)-4,7-bis(dimethylamino)-1,8,10a,11-tetrahydroxy-10,12-dioxo-5,5a,6,6a,7,10,10a,12-octahydrotetracen-2-yl]amino}-2-oxoethyl)(tert-butyl)amino]carbonyl}oxy)methyl 3-cyclohexylpropanoate]", "values": [{"measurement": "MIC", "setting": "S. aureus GC 6467; GC6467, pre-incubation in human serum", "value": 4, "unit": "mg/L"}, {"measurement": "MIC", "setting": "S. aureus GC 6467; GC6467, pre-incubation in mouse serum", "value": 2, "unit": "mg/L"}, {"measurement": "MIC", "setting": "S. aureus GC 6467; GC6467, pre-incubation in water", "value": 16, "unit": "mg/L"}, {"measurement": "MIC", "setting": "c. albicans GC 3066; Candida albicans, GC3066", "value": "> 64", "unit": "mg/L"}, {"measurement": "MIC", "setting": "c. albicans GC 3066; pre-incubation in human serum", "value": ">64", "unit": "UG/ML"}, {"measurement": "MIC", "setting": "c. albicans GC 3066; pre-incubation in mouse serum", "value": ">64", "unit": "UG/ML"}, {"measurement": "MIC", "setting": "S. aureus GC 1079; GC1079, pre-incubation in human serum", "value": 2, "unit": "mg/L"}, {"measurement": "MIC", "setting": "S. aureus GC 1079; GC1079, pre-incubation in mouse serum", "value": 1, "unit": "mg/L"}, {"measurement": "MIC", "setting": "S. aureus GC 1079; GC1079, pre-incubation in water", "value": 8, "unit": "mg/L"}, {"measurement": "MIC", "setting": "S. aureus GC 6466; GC6466, pre-incubation in human serum", "value": 1, "unit": "mg/L"}, {"measurement": "MIC", "setting": "S. aureus GC 6466; GC6466, pre-incubation in mouse serum", "value": 0.5, "unit": "mg/L"}, {"measurement": "MIC", "setting": "S. aureus GC 6466; GC6466, pre-incubation in water", "value": 2, "unit": "mg/L"}, {"measurement": "MIC", "setting": "E. coli GC 2231; GC2231, pre-incubation in human serum", "value": "> 64", "unit": "mg/L"}, {"measurement": "MIC", "setting": "E. coli GC 2231; GC2231, pre-incubation in mouse serum", "value": 1, "unit": "mg/L"}, {"measurement": "MIC", "setting": "E. coli GC 2231; GC2231, pre-incubation in water", "value": "> 64", "unit": "mg/L"}, {"measurement": "MIC", "setting": "S. aureus GC 2216; GC2216, pre-incubation in human serum", "value": 1, "unit": "mg/L"}, {"measurement": "MIC", "setting": "S. aureus GC 2216; GC2216, pre-incubation in mouse serum", "value": 1, "unit": "mg/L"}, {"measurement": "MIC", "setting": "S. aureus GC 2216; GC2216, pre-incubation in water", "value": 4, "unit": "mg/L"}, {"measurement": "MIC", "setting": "E. faecium GC 2243; GC2243, pre-incubation in human serum", "value": 0.25, "unit": "mg/L"}, {"measurement": "MIC", "setting": "E. faecium GC 2243; GC2243, pre-incubation in mouse serum", "value": 0.25, "unit": "mg/L"}, {"measurement": "MIC", "setting": "E. faecium GC 2243; GC2243, pre-incubation in water", "value": 0.5, "unit": "mg/L"}, {"measurement": "MIC", "setting": "S. aureus GC 6469; GC6469, pre-incubation in human serum", "value": 2, "unit": "mg/L"}, {"measurement": "MIC", "setting": "S. aureus GC 6469; GC6469, pre-incubation in mouse serum", "value": 1, "unit": "mg/L"}, {"measurement": "MIC", "setting": "S. aureus GC 6469; GC6469, pre-incubation in water", "value": 16, "unit": "mg/L"}, {"measurement": "MIC", "setting": "S. aureus GC 4536; GC4536, pre-incubation in human serum", "value": 1, "unit": "mg/L"}, {"measurement": "MIC", "setting": "S. aureus GC 4536; GC4536, pre-incubation in mouse serum", "value": 1, "unit": "mg/L"}, {"measurement": "MIC", "setting": "S. aureus GC 4536; GC4536, pre-incubation in water", "value": 4, "unit": "mg/L"}, {"measurement": "MIC", "setting": "E. coli GC 2270; GC2270, pre-incubation in human serum", "value": 64, "unit": "mg/L"}, {"measurement": "MIC", "setting": "E. coli GC 2270; GC2270, pre-incubation in mouse serum", "value": 0.5, "unit": "mg/L"}, {"measurement": "MIC", "setting": "E. coli GC 2270; GC2270, pre-incubation in water", "value": "> 64", "unit": "mg/L"}, {"measurement": "MIC", "setting": "E. coli; 20 h, read-out: Range of MIC, E. coli (Mouse Serum)", "value": "0.5 to 2", "unit": "mg/L"}, {"measurement": "MIC", "setting": "E. coli; read-out: Minimum inhibitory concentration (MIC), E. coli (water)", "value": "> 64", "unit": "mg/L"}, {"measurement": "MIC", "setting": "E. coli; read-out: Range of MIC, E. coli (Water)", "value": "> 64", "unit": "mg/L"}, {"measurement": "MIC", "setting": "E. faecalis GC 2242; GC2242, pre-incubation in human serum", "value": 1, "unit": "mg/L"}, {"measurement": "MIC", "setting": "E. faecalis GC 2242; GC2242, pre-incubation in mouse serum", "value": 1, "unit": "mg/L"}, {"measurement": "MIC", "setting": "E. faecalis GC 2242; GC2242, pre-incubation in water", "value": 1, "unit": "mg/L"}, {"measurement": "MIC", "setting": "E. faecium GC 4556; GC4556, pre-incubation in human serum", "value": 4, "unit": "mg/L"}, {"measurement": "MIC", "setting": "E. faecium GC 4556; GC4556, pre-incubation in mouse serum", "value": 1, "unit": "mg/L"}, {"measurement": "MIC", "setting": "E. faecium GC 4556; GC4556, pre-incubation in water", "value": 0.5, "unit": "mg/L"}, {"measurement": "MIC", "setting": "E. coli GC 6465; GC6465, pre-incubation in human serum", "value": "> 64", "unit": "mg/L"}, {"measurement": "MIC", "setting": "E. coli GC 6465; GC6465, pre-incubation in mouse serum", "value": 2, "unit": "mg/L"}, {"measurement": "MIC", "setting": "E. coli GC 6465; GC6465, pre-incubation in water", "value": "> 64", "unit": "mg/L"}, {"measurement": "MIC", "setting": "S. typhimurium GC 2172; pre-incubation in human serum", "value": "> 64", "unit": "mg/L"}, {"measurement": "MIC", "setting": "S. typhimurium GC 2172; pre-incubation in mouse serum", "value": 2, "unit": "mg/L"}, {"measurement": "MIC", "setting": "S. typhimurium GC 2172; pre-incubation in water", "value": "> 64", "unit": "mg/L"}, {"measurement": "MIC", "setting": "E. coli GC 2233; GC2233, pre-incubation in human serum", "value": "> 64", "unit": "mg/L"}, {"measurement": "MIC", "setting": "E. coli GC 2233; GC2233, pre-incubation in mouse serum", "value": 1, "unit": "mg/L"}, {"measurement": "MIC", "setting": "E. coli GC 2233; GC2233, pre-incubation in water", "value": "> 64", "unit": "mg/L"}, {"measurement": "MIC", "setting": "E. coli GC 2235; GC2235, pre-incubation in human serum", "value": "> 64", "unit": "mg/L"}, {"measurement": "MIC", "setting": "E. coli GC 2235; GC2235, pre-incubation in mouse serum", "value": 0.5, "unit": "mg/L"}, {"measurement": "MIC", "setting": "E. coli GC 2235; GC2235, pre-incubation in water", "value": "> 64", "unit": "mg/L"}, {"measurement": "MIC", "setting": "E. coli GC 1073; GC1073, pre-incubation in human serum", "value": "> 64", "unit": "mg/L"}, {"measurement": "MIC", "setting": "E. coli GC 1073; GC1073, pre-incubation in mouse serum", "value": 2, "unit": "mg/L"}, {"measurement": "MIC", "setting": "E. coli GC 1073; GC1073, pre-incubation in water", "value": "> 64", "unit": "mg/L"}, {"measurement": "MIC", "setting": "Staph.; MRSA, read-out: Range of MIC, Staph (Mouse Serum)", "value": "0.5 to 2", "unit": "mg/L"}, {"measurement": "MIC", "setting": "Staph.; MRSA, read-out: Range of MIC, Staph (Water)", "value": "2 to 16", "unit": "mg/L"}, {"measurement": "MIC", "setting": "Staph.; read-out: Minimum inhibitory concentration (MIC), Staph (Human Serum)", "value": "1 to 4", "unit": "mg/L"}, {"measurement": "MIC", "setting": "Staph.; read-out: Minimum inhibitory concentration (MIC), Staph (Water)", "value": "2 to 16", "unit": "mg/L"}, {"measurement": "MIC", "setting": "E. coli GC 4560; GC4560, pre-incubation in human serum", "value": 2, "unit": "mg/L"}, {"measurement": "MIC", "setting": "E. coli GC 4560; GC4560, pre-incubation in mouse serum", "value": 0.5, "unit": "mg/L"}, {"measurement": "MIC", "setting": "E. coli GC 4560; GC4560, pre-incubation in water", "value": 16, "unit": "mg/L"}]}]}
